EC50 data for 28 compounds are collected here from patent US10730874B2 (Shire Human Genetic Therapies, Inc., priority 2018, dated 2020).

Sequence of human activated kallikrein enzyme (plasma kallikrein) (P03952 391-638): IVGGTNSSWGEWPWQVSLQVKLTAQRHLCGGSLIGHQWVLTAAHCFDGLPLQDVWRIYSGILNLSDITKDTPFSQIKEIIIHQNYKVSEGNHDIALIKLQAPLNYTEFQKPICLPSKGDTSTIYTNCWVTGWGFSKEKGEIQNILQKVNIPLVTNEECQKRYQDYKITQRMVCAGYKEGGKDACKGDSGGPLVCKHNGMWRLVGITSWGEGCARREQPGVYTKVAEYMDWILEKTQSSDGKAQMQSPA
Sequence of human activated kallikrein enzyme (plasma kallikrein) (P03952 20-390 partner): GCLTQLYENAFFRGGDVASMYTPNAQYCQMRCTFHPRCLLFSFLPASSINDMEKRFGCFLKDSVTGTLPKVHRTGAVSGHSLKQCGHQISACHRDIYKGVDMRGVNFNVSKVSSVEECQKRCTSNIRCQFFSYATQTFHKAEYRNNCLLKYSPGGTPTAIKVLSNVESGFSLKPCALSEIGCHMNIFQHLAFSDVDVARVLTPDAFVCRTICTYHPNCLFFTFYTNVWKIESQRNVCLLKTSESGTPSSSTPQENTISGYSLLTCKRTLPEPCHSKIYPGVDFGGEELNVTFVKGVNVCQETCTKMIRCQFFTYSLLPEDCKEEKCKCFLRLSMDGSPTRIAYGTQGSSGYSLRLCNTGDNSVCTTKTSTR

One assay has as its target human activated kallikrein enzyme (plasma kallikrein) (Homo sapiens (Human), UniProt P03952). Nature of the assay: Inhibition of human activated plasma kallikrein, fluorogenic peptide substrate assay, 500 pM enzyme format. The assay is classed as biochemical. As to conditions: 500 pM activated kallikrein enzyme, 300 uM Pro-Phe-Arg-7-amido-4-methylcoumarin substrate, 30 min preincubation, 10 min at RT; read-out: Primary Dose Response Assay: Average EC50. The gist of the method: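 Buffer 20 mM Tris pH 7.5, EDTA, NaCl, PEG-400, Triton X-100; 300 uM Pro-Phe-Arg-AMC; enzyme–inhibitor preincubation 30 min RT. Format one: 500 pM kallikrein, 10 min RT reaction; format two: 5 pM kallikrein, 18 h RT reaction. Fluorescence read at 460 nm (380 nm excitation).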
The EC50 is the midpoint of the concentration-response curve. Take `COCCOc1cc(C2CC2)cn2cc(Cn3cc(C(=O)NCc4ncn5ccc(Cl)cc45)cn3)nc12` [Example I-103, N-((7-chloroimidazo[1,5-a]pyridin-1-yl)methyl)-1-((6-cyclopropyl-8-(2-methoxyethoxy)imidazo[1,2-a]pyridin-2-yl)methyl)-1H-pyrazole-4-carboxamide]: the EC50 was below 1 nM. On the same count and under the same terms, then `Cc1ncn(-c2cc(C3CC3)cn3cc(Cn4cc(C(=O)NCc5ncn6ccc(Cl)c(F)c56)nn4)nc23)n1` [Example I-258, N-((7-chloro-8-fluoroimidazo[1,5-a]pyridin-1-yl)methyl)-1-((6-cyclopropyl-8-(3-methyl-1H-1,2,4-triazol-1-yl)imidazo[1,2-a]pyridin-2-yl)methyl)-1H-1,2,3-triazole-4-carboxamide], with below 1 nM; and `O=C(NCc1ncn2ccc(Cl)cc12)c1cnn(Cc2cn3c(Br)cccc3n2)c1` [Example I-27, 1-((5-bromoimidazo[1,2-a]pyridin-2-yl)methyl)-N-((7-chloroimidazo[1,5-a]pyridin-1-yl)methyl)-1H-pyrazole-4-carboxamide], with 1 to 10 nM. Same read-out and setting: then `Cc1ccn2cnc(CNC(=O)c3cnn(Cc4cn5cc(C6CC6)ccc5n4)c3)c2c1` [Example I-4, 1-((6-cyclopropylimidazo[1,2-a]pyridin-2-yl)methyl)-N-((7-methylimidazo[1,5-a]pyridin-1-yl)methyl)-1H-pyrazole-4-carboxamide], with 1 to 10 nM; and `Cc1ccc2nc(Cn3cc(C(=O)NCc4ncn5ccc(Cl)cc45)cn3)cn2c1` [Example I-64, N-((7-chloroimidazo[1,5-a]pyridin-1-yl)methyl)-1-((6-methylimidazo[1,2-a]pyridin-2-yl)methyl)-1H-pyrazole-4-carboxamide], with 1 to 10 nM; and `Cc1ccc2nc(Cn3cc(C(=O)NCc4ncn5ccc(Br)cc45)cn3)cn2c1C` [Example I-26, N-((7-bromoimidazo[1,5-a]pyridin-1-yl)methyl)-1-((5,6-dimethylimidazo[1,2-a]pyridin-2-yl)methyl)-1H-pyrazole-4-carboxamide], with 1 to 10 nM. The same measure, in the same setting: then `CCc1cccc2nc(Cn3cc(C(=O)NCc4ncn5ccc(Cl)cc45)cn3)cn12` [Example I-46, N-((7-chloroimidazo[1,5-a]pyridin-1-yl)methyl)-1-((5-ethylimidazo[1,2-a]pyridin-2-yl)methyl)-1H-pyrazole-4-carboxamide], with 10 to 100 nM. As for `O=C(NCc1ncn2ccc(Cl)cc12)c1nnc(Cc2cn3nc(C4CC4)ccc3n2)o1` [Example I-138, N-((7-chloroimidazo[1,5-a]pyridin-1-yl)methyl)-5-((6-cyclopropylimidazo[1,2-b]pyridazin-2-yl)methyl)-1,3,4-oxadiazole-2-carboxamide], the EC50 was below 1 nM. For the compound `O=C(NCc1ncn2ccc(Cl)cc12)c1cn(Cc2cn3cc(C4CC4)ccc3n2)nc1C(F)F` [Example I-99, N-((7-chloroimidazo[1,5-a]pyridin-1-yl)methyl)-1-((6-cyclopropylimidazo[1,2-a]pyridin-2-yl)methyl)-3-(difluoromethyl)-1H-pyrazole-4-carboxamide], the EC50 is below 1 nM.

Consider `CCOC(=O)C1CC1c1cc(C2CC2)cn2cc(Cn3cc(C(=O)NCc4ncn5ccc(Cl)cc45)cn3)nc12` (stereo not shown) [Example I-127, ethyl 2-(2-((4-(((7-chloroimidazo[1,5-a]pyridin-1-yl)methyl)carbamoyl)-1H-pyrazol-1-yl)methyl)-6-cyclopropylimidazo[1,2-a]pyridin-8-yl)cyclopropane-1-carboxylate], for which the EC50 was below 1 nM. Same read-out and setting: the figure for `O=C(NCc1ncn2ccc(Cl)c(F)c12)c1cn(Cc2cn3cc(C4CC4)cc(-c4cnoc4)c3n2)nn1` [Example I-225, N-((7-chloro-8-fluoroimidazo[1,5-a]pyridin-1-yl)methyl)-1-((6-cyclopropyl-8-(isoxazol-4-yl)imidazo[1,2-a]pyridin-2-yl)methyl)-1H-1,2,3-triazole-4-carboxamide] is below 1 nM.

`O=C(NCc1ncn2ccc(Cl)c(F)c12)c1cn(Cc2cn3cc(C4CC4)ccc3n2)cn1` [Example I-271, N-((7-chloro-8-fluoroimidazo[1,5-a]pyridin-1-yl)methyl)-1-((6-cyclopropylimidazo[1,2-a]pyridin-2-yl)methyl)-1H-imidazole-4-carboxamide]: the EC50 is below 1 nM. The same measure, in the same setting: the figure for `O=C(NCc1ncn2ccc(Br)c(F)c12)c1cn(Cc2cn3nc(C4CC4)ccc3n2)nn1` [Example I-139, N-((7-bromo-8-fluoroimidazo[1,5-a]pyridin-1-yl)methyl)-1-((6-cyclopropylimidazo[1,2-b]pyridazin-2-yl)methyl)-1H-1,2,3-triazole-4-carboxamide] is below 1 nM. Turning to `CC(F)c1cc(C2CC2)cn2cc(Cn3cc(C(=O)NCc4ncn5ccc(Cl)c(F)c45)nn3)nc12` (stereo not shown) [Example I-213, N-((7-chloro-8-fluoroimidazo[1,5-a]pyridin-1-yl)methyl)-1-((6-cyclopropyl-8-(1-fluoroethyl)imidazo[1,2-a]pyridin-2-yl)methyl)-1H-1,2,3-triazole-4-carboxamide], the EC50 is below 1 nM.

Consider `C#Cc1ccn2cnc(CNC(=O)c3cnn(Cc4cn5nc(C6CC6)ccc5n4)c3)c2c1` [Example I-98, 1-((6-cyclopropylimidazo[1,2-b]pyridazin-2-yl)methyl)-N-((7-ethynylimidazo[1,5-a]pyridin-1-yl)methyl)-1H-pyrazole-4-carboxamide], for which the EC50 is below 1 nM. Same read-out and setting: then `O=C(NCc1ncn2ccc(Cl)c(F)c12)c1cnn(Cc2cn3ncccc3n2)c1` [Example I-285, N-((7-chloro-8-fluoroimidazo[1,5-a]pyridin-1-yl)methyl)-1-(imidazo[1,2-b]pyridazin-2-ylmethyl)-1H-pyrazole-4-carboxamide], with 10 to 100 nM; and `Cc1ccc2nc(Cn3cc(C(=O)NCc4ncn5c(N)cc(Cl)cc45)cn3)cn2c1` [Example I-58, N-((5-amino-7-chloroimidazo[1,5-a]pyridin-1-yl)methyl)-1-((6-methylimidazo[1,2-a]pyridin-2-yl)methyl)-1H-pyrazole-4-carboxamide], with 1 to 10 nM. The same measure, in the same setting: the figure for `Nc1ccc2c(CNC(=O)c3cnn(Cc4cn5cc(C6CC6)ccc5n4)c3)ncn2c1` [Example I-53, N-((6-aminoimidazo[1,5-a]pyridin-1-yl)methyl)-1-((6-cyclopropylimidazo[1,2-a]pyridin-2-yl)methyl)-1H-pyrazole-4-carboxamide] is 100 to 2000 nM; for `O=C(NCc1ncn2ccc(Cl)c(F)c12)c1cn(Cc2cn3cc(C4CC4)cc(-n4cnnn4)c3n2)nn1` [Example I-179, N-((7-chloro-8-fluoroimidazo[1,5-a]pyridin-1-yl)methyl)-1-((6-cyclopropyl-8-(1H-tetrazol-1-yl)imidazo[1,2-a]pyridin-2-yl)methyl)-1H-1,2,3-triazole-4-carboxamide] it is below 1 nM; for `O=C(NCc1ncn2ccc(Cl)cc12)c1cn(Cc2cn3nc(C4CC4)ccc3n2)nn1` [Example I-111, N-((7-chloroimidazo[1,5-a]pyridin-1-yl)methyl)-1-((6-cyclopropylimidazo[1,2-b]pyridazin-2-yl)methyl)-1H-1,2,3-triazole-4-carboxamide] it is below 1 nM.

In the case of `O=C(NCc1ncn2ccc(Cl)cc12)c1cn(Cc2cn3cc(C4CC4)ccc3n2)nc1C1CC1` [Example I-78, N-((7-chloroimidazo[1,5-a]pyridin-1-yl)methyl)-3-cyclopropyl-1-((6-cyclopropylimidazo[1,2-a]pyridin-2-yl)methyl)-1H-pyrazole-4-carboxamide], the EC50 is below 1 nM.

As to `CC(C)(Cc1cc(C2CC2)cn2cc(Cn3cc(C(=O)NCc4ncn5ccc(Cl)c(F)c45)nn3)nc12)C(=O)O` [Example I-206, 3-(2-((4-(((7-chloro-8-fluoroimidazo[1,5-a]pyridin-1-yl)methyl)carbamoyl)-1H-1,2,3-triazol-1-yl)methyl)-6-cyclopropylimidazo[1,2-a]pyridin-8-yl)-2,2-dimethylpropanoic acid], the EC50 was below 1 nM. As to `O=C(NCc1ncn2ccc(Cl)c(F)c12)c1nnc(Cc2cn3cc(C4CC4)ccc3n2)o1` [Example I-137, N-((7-chloro-8-fluoroimidazo[1,5-a]pyridin-1-yl)methyl)-5-((6-cyclopropylimidazo[1,2-a]pyridin-2-yl)methyl)-1,3,4-oxadiazole-2-carboxamide], the 50% effective concentration (EC50) is below 1 nM. For the compound `O=C(NCc1ncn2ccc(Cl)cc12)c1cn(Cc2cn3cc(C4CC4)cc(CCc4nnn[nH]4)c3n2)nn1` [Example I-194, 1-((8-(2-(1H-tetrazol-5-yl)ethyl)-6-cyclopropylimidazo[1,2-a]pyridin-2-yl)methyl)-N-((7-chloroimidazo[1,5-a]pyridin-1-yl)methyl)-1H-1,2,3-triazole-4-carboxamide], the EC50 is below 1 nM.

For `N#Cc1cc(C2CC2)cn2cc(Cn3cc(C(=O)NCc4ncn5ccc(Br)c(F)c45)nn3)nc12` [Example I-131, N-((7-bromo-8-fluoroimidazo[1,5-a]pyridin-1-yl)methyl)-1-((8-cyano-6-cyclopropylimidazo[1,2-a]pyridin-2-yl)methyl)-1H-1,2,3-triazole-4-carboxamide], the EC50 is below 1 nM. Turning to `O=C(NCc1ncn2ccc(Cl)c(F)c12)c1cn(Cc2cn3cc(C4CC4)cc(N4CCOCC4)c3n2)nn1` [Example I-173, N-((7-chloro-8-fluoroimidazo[1,5-a]pyridin-1-yl)methyl)-1-((6-cyclopropyl-8-morpholinoimidazo[1,2-a]pyridin-2-yl)methyl)-1H-1,2,3-triazole-4-carboxamide], the EC50 was below 1 nM.

The assay is the same for the next values; noted with them: comparative compounds (Table II); assay format with 500 pM (500 μM in the source) activated kallikrein; read-out: Primary Dose Response Assay: Average EC50.
Consider `COCc1nn(Cc2ccc(N3CCCC3)nc2)cc1C(=O)NCc1c(-n2cnnn2)ccc(OC)c1F` [reference compound], for which the concentration giving a half-maximal response (EC50) lay within 1 to 10 nM. In the case of `O=C(NCc1ncn2ccc(C3CC3)cc12)c1cnn(Cc2cn3cc(C4CC4)ccc3n2)c1` [drawing 403, reference compound], the EC50 is 100 to 2000 nM.
